# Earlier results, collected in patent US20230140155A1, “MEDICAMENT FOR TREATMENT AND/OR PREVENTION OF CANCER” (TORAY INDUSTRIES, INC., priority 2020, published 2023).
# Tested on: basal-like subtype breast cancer (BLBC)
# Settings: with docetaxel following epirubicin and cyclophosphamide (EC treatment)
smiles,measurement,value
"[NH2][Pt]1([NH2])[O]C(=O)C2(CCC2)C(=O)[O]1 [carboplatin, (SP-4-2)-diammine[cyclobutan-1,1-dicaruboxylato(2-)-O,O′]platinum]",effectiveness for treatment of BLBC,not effective
